Values after ≈ are worked out from the molar mass of the structure shown. “Also recorded” adds a separate entry of the source. Where two headings read alike, the source gives them in different places.
Experiments:
[1] = test system: human liver cancer QGY-7701; test: MTT cytotoxicity, QGY-7701; format: cell-based
Description: (§1) Cell lines: human low differentiation stomach cancer BGC-823, human liver cancer QGY-7701, mouse lung cancer 3LL.
(§2) Experimental Details: The cyto-toxicity of XC608 is measured using the MTT method. Specifically: (1) cell culture: (i) frozen cells are removed from liquid nitrogen, rapidly thawed in 37° C. water bath; added to 6 ml DMEM culture medium in a 10 ml centrifuge tubes under sterile conditions, centrifuged at 1000 rpm for 5 min., with the supernatant removed. To the sediment is added 5-6 ml of DMEM medium, and re-suspended and cultured overnight at 37° C. (ii) The cells are centrifuged, washed twice with PBS, and treated with 3-4 drops of trypsin solution for about 3 minute at 37° C., and monitored under microscope to ensure that all cells are separated from the culture tube walls, and re-suspended in additional DMEM medium. […] (2) Test compound preparation: XC608 and XC302 are dissolved in PBS and serial diluted to 1000, 100, 10, 1, 0.1 and 0.01 μg/ml. (3) The prepared test compound solution is added to the holes of a 96-hole culture plate, 10 μl/hole, with two holes per concentration point, and 10 μl PBS as control. (4) Prepare a suspension of log phase cell in a DMEM medium containing 10% new born bovine serum with a cell concentration of 2×10^5/ml.
(§3) (5) add 90 μl cell suspension to each of the holes containing the test compound or control. […]

mouse lung cancer 3LL = test: MTT cytotoxicity, 3LL; format: cell-based; details: 48 hours
Description: as §1, §2, §3

[2] = test system: human low differentiation stomach cancer BGC-823; test: MTT cytotoxicity, BGC-823; format: cell-based
Description: as §1, §2, §3

HT-29 Cell line = test: SRB cell multiplication test, sensitizing to cytotoxic antitumor drugs; details: for sensitizing effects on cytotoxic antitumor drugs at the cellular level (in words): DDP, 5-fu, pemetrexed, oxaliplatin as named in the sentence
Description: 3.2 Cell Lines: HT-29 Cell line (from ATCC).
Test Protocol: The effects of the compounds on cancer cell multiplication was measured using Sulforhodamine B (SRB). Specifically, log phase cells are inoculated into the holes of 96-hole culture plates, allowed to grow using the wall-adhesion procedure at 37° C. under 5% CO2. The test compound at 9 different concentrations were added, each concentration in duplicate, with appropriate saline water and cell-less controls. The cells are cultured for a further 72 hours, and fixed with TCA, and SRB is added for staining, and washed, and air-dried. After adding the Tris solution, the OD value was measured at 510 nm using a Spectra Max 190. The rate of inhibition is calculated according to the formula below: Rate of Inhibition=(ODcontrol−ODdrug)/ODcontrol×100%.
The IC50 is calculated based on the above ratios.

Mouse Lung Cancer (3LL) = test: In vitro anti-cancer cell activity, 3LL; format: cell-based; details: read-out: In vitro anti-cancer cell activities IC50, Mouse Lung Cancer (3LL)
Description: (§4) Some of the above compounds are tested in vitro or in vivo for their anti-cancer or anti-tumor activities, as well as cellular toxicity tests using SRB and MTT methods. The in vitro anti-cancer effects on human cancer HT-29 and mouse lung cancer cell 3LL are summarized in Table 1, and the effects on treating transplanted human colon cancer […] on nude mice are summarized in Table 2.

Human colon cancer HT-29 [3] = test: In vitro anti-cancer cell activity, HT-29; format: cell-based; details: read-out: In vitro anti-cancer cell activities IC50, Human colon cancer HT-29
Description: as §4

HER2 = target: T1, HER2 (Homo sapiens, UniProt P04626); test: Kinase activity measurement, HER2; format: biochemical
T1 construct: purchased Sigma
T1 sequence (P04626 23-1255): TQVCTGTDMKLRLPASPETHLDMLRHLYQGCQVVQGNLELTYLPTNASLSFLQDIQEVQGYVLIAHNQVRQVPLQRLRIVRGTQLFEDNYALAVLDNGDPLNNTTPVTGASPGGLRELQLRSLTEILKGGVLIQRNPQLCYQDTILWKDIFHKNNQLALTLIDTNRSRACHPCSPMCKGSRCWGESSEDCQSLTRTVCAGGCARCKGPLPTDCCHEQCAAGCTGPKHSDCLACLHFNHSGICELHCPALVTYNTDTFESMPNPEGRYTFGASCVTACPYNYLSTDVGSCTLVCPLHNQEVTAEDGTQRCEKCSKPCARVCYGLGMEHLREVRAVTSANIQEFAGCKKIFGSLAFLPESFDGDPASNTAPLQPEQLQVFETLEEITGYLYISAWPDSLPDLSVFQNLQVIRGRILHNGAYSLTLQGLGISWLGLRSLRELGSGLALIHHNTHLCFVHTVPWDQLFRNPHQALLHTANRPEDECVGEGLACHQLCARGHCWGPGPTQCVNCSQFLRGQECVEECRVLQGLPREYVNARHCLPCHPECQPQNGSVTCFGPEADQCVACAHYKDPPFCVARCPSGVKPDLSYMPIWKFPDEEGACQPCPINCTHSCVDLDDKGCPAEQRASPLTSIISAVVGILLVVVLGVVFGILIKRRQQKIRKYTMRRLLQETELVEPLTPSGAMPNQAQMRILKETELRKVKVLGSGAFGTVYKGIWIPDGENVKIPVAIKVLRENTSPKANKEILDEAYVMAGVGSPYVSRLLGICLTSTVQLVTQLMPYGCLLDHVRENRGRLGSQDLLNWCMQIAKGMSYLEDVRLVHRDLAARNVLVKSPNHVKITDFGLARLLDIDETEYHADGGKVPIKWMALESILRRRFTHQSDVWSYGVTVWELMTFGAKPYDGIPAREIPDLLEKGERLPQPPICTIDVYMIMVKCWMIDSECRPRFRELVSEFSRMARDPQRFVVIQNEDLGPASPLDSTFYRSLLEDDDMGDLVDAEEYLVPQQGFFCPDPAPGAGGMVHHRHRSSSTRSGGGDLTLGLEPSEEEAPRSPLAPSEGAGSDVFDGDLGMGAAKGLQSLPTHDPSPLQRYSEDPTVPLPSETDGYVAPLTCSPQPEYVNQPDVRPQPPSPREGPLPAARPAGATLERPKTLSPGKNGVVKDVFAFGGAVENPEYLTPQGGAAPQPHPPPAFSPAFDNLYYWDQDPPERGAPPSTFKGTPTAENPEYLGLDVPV
Description: (§5) The K-LISA™ Chk-1/Chk2 Activity Kit was supplied by Calibiochem (Cat. No. CBA020). Chk1 and Chk2 are from Upstate Biotechnology, Inc., and C-Met, HER2, EGFR are from Sigma. The Chk Peptide ([…]) (SEQ ID NO: 1) is from Cell Signaling, Inc., (Beverly, Mass., USA), and is stored at −70° C.
(§6) Kinase activity measurements: Enzyme, sample, Chk peptide, 5 μm ATP, and reaction buffer are added to the holes of biotinylated reaction plates. After the reaction is terminated with a stop buffer, the contents are discarded, replaced with 100 μl/hole of serine kinase antibody, to detect phosphorylation, and HRP-labeled goat-anti-rabbit IgG is added and incubated at room temperature for 1 hour. TMB reaction is conducted to determine substrate phosphorylation, with proper controls. OD450 is measured using VERSAmax (Sunnyvale, Calif., USA). The rate of inhibition is calculated as the follows: Rate of Inhibition (I)=(reaction hole OD Value−OD value of Enzyme-free control)/(OD value of negative control−OD value of enzyme-free control)×100%.

[4] = test system: human colon cancer SW-620; test: Nude mice transplanted with human colon cancer SW-620, XC608 with ADR and 5-fu; format: in vivo; details: SW-620 in nude mice
Description: (§7) Nude mice transplanted with human colon cancer HT-29 and SW-620 and breast cancer MDA-MB-231 are tested using XC608 alone and in combination with ADR and 5-fu.

Chk2 = target: T2, Chk2 (Homo sapiens, UniProt O96017); test: Kinase activity measurement (K-LISA), Chk2; format: biochemical
T2 construct: purchased Upstate Biotechnology, Inc
T2 sequence (O96017 whole entry): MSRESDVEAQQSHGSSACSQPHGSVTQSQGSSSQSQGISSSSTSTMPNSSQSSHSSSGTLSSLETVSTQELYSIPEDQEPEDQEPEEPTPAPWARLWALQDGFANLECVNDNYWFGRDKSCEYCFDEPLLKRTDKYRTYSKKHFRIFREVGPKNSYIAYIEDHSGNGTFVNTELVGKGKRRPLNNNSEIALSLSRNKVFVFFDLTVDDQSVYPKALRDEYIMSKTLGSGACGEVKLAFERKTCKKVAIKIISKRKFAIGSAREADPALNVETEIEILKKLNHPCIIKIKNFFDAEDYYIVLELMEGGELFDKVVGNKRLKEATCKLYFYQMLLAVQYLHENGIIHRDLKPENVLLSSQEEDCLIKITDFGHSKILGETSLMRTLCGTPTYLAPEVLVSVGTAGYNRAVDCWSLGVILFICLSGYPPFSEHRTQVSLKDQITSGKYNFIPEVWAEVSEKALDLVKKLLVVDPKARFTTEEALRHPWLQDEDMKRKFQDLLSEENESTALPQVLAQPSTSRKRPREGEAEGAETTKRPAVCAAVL
Description: as §5, §6

c-Met = target: T3, c-Met (Homo sapiens, UniProt P08581); test: Kinase activity measurement, c-Met; format: biochemical
T3 construct: purchased Sigma
T3 sequence (P08581 25-1390): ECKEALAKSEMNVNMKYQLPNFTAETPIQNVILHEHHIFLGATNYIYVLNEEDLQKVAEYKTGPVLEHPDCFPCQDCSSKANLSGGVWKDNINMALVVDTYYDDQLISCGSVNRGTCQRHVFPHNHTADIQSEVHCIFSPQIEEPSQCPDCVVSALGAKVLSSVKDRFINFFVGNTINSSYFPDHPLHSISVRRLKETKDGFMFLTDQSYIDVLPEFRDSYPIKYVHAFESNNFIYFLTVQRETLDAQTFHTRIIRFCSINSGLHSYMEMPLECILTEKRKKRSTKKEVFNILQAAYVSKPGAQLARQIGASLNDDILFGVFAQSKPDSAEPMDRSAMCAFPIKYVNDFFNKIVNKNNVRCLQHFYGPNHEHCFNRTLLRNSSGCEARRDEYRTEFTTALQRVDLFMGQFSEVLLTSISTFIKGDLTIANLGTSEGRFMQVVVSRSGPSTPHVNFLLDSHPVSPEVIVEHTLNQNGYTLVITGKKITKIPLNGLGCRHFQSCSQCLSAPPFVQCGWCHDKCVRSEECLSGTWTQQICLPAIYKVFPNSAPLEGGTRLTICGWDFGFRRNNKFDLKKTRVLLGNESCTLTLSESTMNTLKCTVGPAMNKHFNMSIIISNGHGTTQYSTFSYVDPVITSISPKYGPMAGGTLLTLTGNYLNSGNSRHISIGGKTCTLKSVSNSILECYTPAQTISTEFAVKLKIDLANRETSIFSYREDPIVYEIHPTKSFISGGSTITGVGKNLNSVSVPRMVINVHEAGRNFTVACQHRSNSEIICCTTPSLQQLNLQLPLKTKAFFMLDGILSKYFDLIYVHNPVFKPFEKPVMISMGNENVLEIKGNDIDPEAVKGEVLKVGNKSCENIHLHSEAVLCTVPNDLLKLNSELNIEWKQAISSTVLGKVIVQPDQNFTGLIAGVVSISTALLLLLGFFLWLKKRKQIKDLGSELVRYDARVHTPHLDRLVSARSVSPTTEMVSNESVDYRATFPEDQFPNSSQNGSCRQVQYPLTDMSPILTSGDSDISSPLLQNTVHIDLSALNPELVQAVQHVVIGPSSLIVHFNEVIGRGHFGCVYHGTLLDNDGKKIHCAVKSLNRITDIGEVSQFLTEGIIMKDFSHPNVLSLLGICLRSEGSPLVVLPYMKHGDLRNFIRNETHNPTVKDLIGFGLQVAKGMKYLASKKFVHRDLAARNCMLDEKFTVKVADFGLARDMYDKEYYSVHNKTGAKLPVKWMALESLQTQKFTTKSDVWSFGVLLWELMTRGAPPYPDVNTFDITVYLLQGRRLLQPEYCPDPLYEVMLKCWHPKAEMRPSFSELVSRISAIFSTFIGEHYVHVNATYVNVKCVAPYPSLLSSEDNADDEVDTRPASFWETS
Description: as §5, §6

EGFR = target: T4, EGFR (Homo sapiens, UniProt P00533); test: Kinase activity measurement, EGFR; format: biochemical
T4 construct: purchased Sigma
T4 sequence (P00533 25-1210): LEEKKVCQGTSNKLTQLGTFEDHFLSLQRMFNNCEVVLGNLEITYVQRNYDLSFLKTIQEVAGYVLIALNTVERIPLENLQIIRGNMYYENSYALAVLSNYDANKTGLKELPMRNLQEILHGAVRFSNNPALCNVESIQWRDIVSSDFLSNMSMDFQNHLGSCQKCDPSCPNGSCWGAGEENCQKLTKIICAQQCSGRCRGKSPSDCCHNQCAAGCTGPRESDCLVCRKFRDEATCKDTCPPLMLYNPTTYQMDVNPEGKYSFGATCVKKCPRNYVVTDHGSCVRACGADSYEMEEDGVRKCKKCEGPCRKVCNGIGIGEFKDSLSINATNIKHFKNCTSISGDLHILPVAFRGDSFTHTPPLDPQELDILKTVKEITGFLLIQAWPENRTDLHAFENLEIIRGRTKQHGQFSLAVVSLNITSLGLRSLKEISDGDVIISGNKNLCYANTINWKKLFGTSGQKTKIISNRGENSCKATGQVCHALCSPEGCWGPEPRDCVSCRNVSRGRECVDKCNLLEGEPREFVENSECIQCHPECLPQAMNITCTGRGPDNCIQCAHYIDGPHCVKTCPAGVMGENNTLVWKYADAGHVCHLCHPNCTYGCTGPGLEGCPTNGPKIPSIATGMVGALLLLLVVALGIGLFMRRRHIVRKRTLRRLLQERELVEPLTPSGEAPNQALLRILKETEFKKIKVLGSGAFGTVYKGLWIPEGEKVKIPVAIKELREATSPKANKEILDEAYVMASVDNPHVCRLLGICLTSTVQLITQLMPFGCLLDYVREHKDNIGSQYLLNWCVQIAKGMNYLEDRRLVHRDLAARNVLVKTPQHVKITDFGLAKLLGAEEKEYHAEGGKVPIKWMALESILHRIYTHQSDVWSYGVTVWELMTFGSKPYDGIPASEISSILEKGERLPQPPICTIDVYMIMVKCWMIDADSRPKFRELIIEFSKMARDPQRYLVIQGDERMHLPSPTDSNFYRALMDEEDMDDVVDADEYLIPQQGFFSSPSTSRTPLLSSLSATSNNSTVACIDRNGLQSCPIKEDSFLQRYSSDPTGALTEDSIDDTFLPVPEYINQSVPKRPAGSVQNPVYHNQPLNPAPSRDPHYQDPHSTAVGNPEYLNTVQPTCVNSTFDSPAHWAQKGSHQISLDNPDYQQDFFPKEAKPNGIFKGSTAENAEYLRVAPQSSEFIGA
Description: as §5, §6

human colon cancer HT-29 [5] = test: Nude mice transplanted with human colon cancer HT-29, XC608 with ADR and 5-fu; format: in vivo; details: HT-29 in nude mice
Description: as §7

Chk1 = target: T5, Chk1 (Homo sapiens, UniProt O14757); test: Kinase activity measurement (K-LISA), Chk1; format: biochemical
T5 construct: purchased Upstate Biotechnology, Inc
T5 sequence (O14757 1-476): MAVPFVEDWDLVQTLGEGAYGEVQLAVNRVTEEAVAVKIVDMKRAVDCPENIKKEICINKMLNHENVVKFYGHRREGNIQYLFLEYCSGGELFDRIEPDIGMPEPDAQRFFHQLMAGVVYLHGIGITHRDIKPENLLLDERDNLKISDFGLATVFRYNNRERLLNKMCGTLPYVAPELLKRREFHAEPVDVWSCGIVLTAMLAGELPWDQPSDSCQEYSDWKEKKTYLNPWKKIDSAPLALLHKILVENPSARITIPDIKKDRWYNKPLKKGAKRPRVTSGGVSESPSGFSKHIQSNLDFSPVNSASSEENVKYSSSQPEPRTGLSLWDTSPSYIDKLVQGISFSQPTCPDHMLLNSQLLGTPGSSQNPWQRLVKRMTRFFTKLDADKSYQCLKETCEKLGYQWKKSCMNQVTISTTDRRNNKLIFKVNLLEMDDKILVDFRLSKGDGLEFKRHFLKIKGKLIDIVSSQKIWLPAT
Description: The K-LISA™ Chk-1/Chk2 Activity Kit was supplied by Calibiochem (Cat. No. CBA020). Chk1 and Chk2 are from Upstate Biotechnology, Inc., and C-Met, HER2, EGFR are from Sigma.
as §6, with “After” for “Kinase activity measurements: Enzyme, sample, Chk peptide, 5 μm ATP, and reaction buffer are added to the holes of biotinylated reaction plates. After”

cdc2 phosphorylation = cdc2 phosphorylation induced by topoisomerase I; format: cell-based
Source text: The effects of XC608 on the activity of protein kinases Chk1, Chk2 and c-met, and on cells entering cell cycle after drug-induced DNA damages and cellular reactions to DNA damages are studied.

[6] = read-out: IC50 +10 nM AZD7762, HT-29, SRB, 72 hours, drug +10 nM AZD7762
[7] = read-out: IC50 +100 nM AZD7762, HT-29, SRB, 72 hours, drug +100 nM AZD7762
[8] = read-out: IC50 +1 μM XC608, HT-29, SRB, 72 hours, drug +1 μM XC608
[9] = read-out: IC50 Drug alone, HT-29, SRB, 72 hours, drug alone
[10] = Homo sapiens, HT-29, 72 h, read-out: IC50 Drug alone

In the case of CS(=O)(=O)O.CS(=O)(=O)O.O.O.c1cnc2ccc(Nc3nc(NC4CC4)c4nc[nH]c4n3)cc2c1 [XC302], the “IC50, inhibition of cancer cell multiplication, QGY-7701” value ([1]; 48 hours) is reported as 6.69 µg/mL, the “IC50, inhibition of cancer cell multiplication, 3LL” value (mouse lung cancer 3LL) is reported as 2.96 µg/mL and the “IC50, inhibition of cancer cell multiplication, BGC-823” value ([2]; 48 hours) is reported as 4.77 µg/mL.

Work on N.N.[Cl][Pt][Cl] [DDP, cisplatin] yielded an IC50 (HT-29 Cell line; [6]) of 5.2 µM, an IC50 (HT-29 Cell line; [7]) of 1.3 µM and an IC50 (HT-29 Cell line; [8]) of 1.3 µM. For the same compound, the IC50 (HT-29 Cell line; [9]) was 7.7 µM.

Compound O=C1[O][Pt]2([NH][C@@H]3CCCC[C@H]3[NH]2)[O]C1=O [oxaliplatin] has an IC50 (HT-29 Cell line; [6]) of 2.5 µM, an IC50 (HT-29 Cell line; [7]) of 1.1 µM and an IC50 (HT-29 Cell line; [8]) of 1.3 µM. It also gave an IC50 (HT-29 Cell line; [9]) of 1.6 µM.

O=c1[nH]cc(F)c(=O)[nH]1 [Compound 5-Fu, 5-fluorouracil] showed an IC50 (HT-29 Cell line; [10]) of 1.1 µM, an IC50 (HT-29 Cell line; [6]) of 1 µM and an IC50 (HT-29 Cell line; [7]) of 0.3 µM. It also gave an IC50 (HT-29 Cell line; [8]) of 0.2 µM.

For NC(=O)c1nnc(NC2CCCNC2)c2cc(-c3ccc(F)cc3)sc12 (centres unmarked) [Compound 1, 2-(4-fluorophenyl)-4-(3-piperidineamino)-thieno[2,3-d]pyridazine-7-carboxylic acid amide], the IC50 (Mouse Lung Cancer (3LL)) was 1.88 µM and the IC50 (Human colon cancer HT-29 [3]) was 1.58 µM.

In the case of NC(=O)c1nnc(N[C@H]2CCCNC2)c2cc(-c3cccc(F)c3)sc12 [XC608], the IC50 ([1]; Homo sapiens, QGY7701, 48 hours, read-out: IC50, inhibition of cancer cell multiplication, QGY-7701) is reported as 5.14 µg/mL (≈ 13.8 µM), the “effect on HER2 (in words)” value (HER2) is reported as “not apparent effect” and the inhibition at 1 µM (HER2; 1 μM, read-out: Inhibition (%) (Mean ± SD) HER2) is reported as 10.2 ± 1.3%. The IC50 (mouse lung cancer 3LL; Mus musculus, read-out: IC50, inhibition of cancer cell multiplication, 3LL) was 1.05 µg/mL (≈ 2.83 µM), the “sensitizing effects on the treatment effects of ADR and 5-fu (in words)” value [4] was “significant sensitizing effects” and the “effect on activity of Chk2 (in words)” value (Chk2) was “clearly inhibits; also recorded: strongly inhibits”. For the same compound, the inhibition at 1 µM (Chk2; 1 μM, read-out: Inhibition (%) (Mean ± SD) Chk2) was 90 ± 13.2%, the “effect on c-met (in words)” value (c-Met) was “not apparent effect” and the inhibition at 1 µM (c-Met; 1 μM, read-out: Inhibition (%) (Mean ± SD) c-Met) was 15.9%. For the same compound, the “sensitizing effect on gemcitabine” value (HT-29 Cell line; cell cultures, gemcitabine) was “more than 20 times”, the “sensitizing effects on cytotoxic antitumor drugs at the cellular level (in words)” value (HT-29 Cell line; gemcitabine) was “strong sensitizing effects” and the “sensitizing effects on cytotoxic antitumor drugs at the cellular level (in words)” value (HT-29 Cell line; gemcitabine, listed as XC-608) was “effective in sensitizing”. For the same compound, the IC50 ([2]; Homo sapiens, BGC-823, 48 hours, read-out: IC50, inhibition of cancer cell multiplication, BGC-823) was 7.11 µg/mL (≈ 19.1 µM), the “effect on EGFR (in words)” value (EGFR) was “not apparent effect” and the inhibition at 1 µM (EGFR; 1 μM, read-out: Inhibition (%) (Mean ± SD) EGFR) was 15.9 ± 5.3%. For the same compound, the “sensitizing effects on the treatment effects of ADR and 5-fu (in words)” value (human colon cancer HT-29 [5]) was “significant sensitizing effects”, the “effect on activity of Chk1 (in words)” value (Chk1) was “clearly inhibits; also recorded: strongly inhibits” and the “specificity for Chk1 (conclusion in words)” value (Chk1) was “specific Chk1 inhibitor”. The inhibition at 1 µM (Chk1; 1 μM, read-out: Inhibition (%) (Mean ± SD) Chk1) was 85 ± 11.1% and the “effect on cdc2 phosphorylation induced by topoisomerase I (in words)” value (cdc2 phosphorylation) was “eliminates; also recorded: reduces”.

For CC(=O)O[C@H]1C(=O)[C@@]2(C)[C@H]([C@H](OC(=O)c3ccccc3)[C@]3(O)C[C@H](OC(=O)[C@H](O)[C@@H](NC(=O)c4ccccc4)c4ccccc4)C(C)=C1C3(C)C)[C@]1(OC(C)=O)CO[C@@H]1C[C@@H]2O [Paclitaxel, paclitaxel], the IC50 (HT-29 Cell line; [10]) was 0.003 µM, the IC50 (HT-29 Cell line; [7]) was 0.005 µM and the IC50 (HT-29 Cell line; [8]) was 0.002 µM.

For NC(=O)Nc1cc(-c2cccc(F)c2)sc1C(=O)N[C@H]1CCCNC1 [AZD7762], the inhibition at 0.1 µM (Chk2; 100 nM, read-out: Inhibition (%) (Mean ± SD) Chk2) was 99%.
